# Publication PMC10062709, “Fluorescence based HTS-compatible ligand binding assays for dopamine D3 receptors in baculovirus preparations and live cells” (Frontiers in Molecular Biosciences, 2023)
# Target: T1, human D3 receptor (Homo sapiens, UniProt P35462)
# T1 construct: host or cells: Sf9 cells; final budded baculovirus production in Mimic Sf9 insect cells
# Experiment: Fluorescence anisotropy competition binding with CELT-419 and D3 receptor budded baculoviruses
# Settings: FA competition with 0.5 nM CELT-419
# Method: The competitive ligand dilutions were done on the measurement plate. Also, a point with no competitive ligand was included and for blank correction, a point with only BBV was included. Measurements were carried out with 5 min intervals for 5 h at 27 °C. In all cases, BBV was added as the last component to initiate the ligand binding process.
# To fit the Log(IC50) change in time from the competition binding experiments, a single-phase exponential decay equation with a constant corresponding to the equilibrium state was used.
# T1 sequence (P35462 whole entry): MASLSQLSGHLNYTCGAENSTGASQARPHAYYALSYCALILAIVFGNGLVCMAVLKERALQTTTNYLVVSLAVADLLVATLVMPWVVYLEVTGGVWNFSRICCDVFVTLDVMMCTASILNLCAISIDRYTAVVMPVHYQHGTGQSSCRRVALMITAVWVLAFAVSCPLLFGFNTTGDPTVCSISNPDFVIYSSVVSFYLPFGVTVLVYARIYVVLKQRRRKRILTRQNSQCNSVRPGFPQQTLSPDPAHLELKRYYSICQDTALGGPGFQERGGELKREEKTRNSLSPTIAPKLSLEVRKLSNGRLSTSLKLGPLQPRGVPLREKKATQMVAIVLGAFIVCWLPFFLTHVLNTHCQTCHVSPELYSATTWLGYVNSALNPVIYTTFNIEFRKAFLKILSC
structure (smiles),measurement,value
CN1CCc2cccc3c2[C@H]1Cc1ccc(O)c(O)c1-3 [Apomorphine],Log(IC50) values change in time,increased in time
